Test results: paper PMC7969469 (Cancer research, 2021)

Test system: invadopodia formation
Experiment: Invadopodia formation with ROCK inhibitor
Type: cell-based
Conditions: ROCK inhibition, Supplementary Figure S6C

With `O=S(=O)(c1cccc2cnccc12)N1CCCNCC1` [Fasudil] the “effect on invadopodia formation” value was “affected neither”.
